ChEMBL document CHEMBL4814045, “Discovery of novel Staphylococcus aureus penicillin binding protein 2a inhibitors by multistep virtual screening and biological evaluation” (Bioorg Med Chem Lett, 2021)
Converted amounts (≈) assume the structure as drawn.

What was measured:
[1] = system: Staphylococcus aureus; assay: Antibacterial activity against methicillin-resistant Staphylococcus aureus ATCC 33591; type: functional
[2] = system: L02; assay: Cytotoxicity against human LO2 cells; type: cell-based
[3] = system: Staphylococcus aureus; assay: Antibacterial activity against Staphylococcus aureus […]; type: functional
[4] = target: T1, MecA (Staphylococcus aureus) (UniProt Q7DHH4); assay: Binding affinity to Staphylococcus aureus PBP2a assessed as association constant by SPR assay
T1 sequence (whole entry): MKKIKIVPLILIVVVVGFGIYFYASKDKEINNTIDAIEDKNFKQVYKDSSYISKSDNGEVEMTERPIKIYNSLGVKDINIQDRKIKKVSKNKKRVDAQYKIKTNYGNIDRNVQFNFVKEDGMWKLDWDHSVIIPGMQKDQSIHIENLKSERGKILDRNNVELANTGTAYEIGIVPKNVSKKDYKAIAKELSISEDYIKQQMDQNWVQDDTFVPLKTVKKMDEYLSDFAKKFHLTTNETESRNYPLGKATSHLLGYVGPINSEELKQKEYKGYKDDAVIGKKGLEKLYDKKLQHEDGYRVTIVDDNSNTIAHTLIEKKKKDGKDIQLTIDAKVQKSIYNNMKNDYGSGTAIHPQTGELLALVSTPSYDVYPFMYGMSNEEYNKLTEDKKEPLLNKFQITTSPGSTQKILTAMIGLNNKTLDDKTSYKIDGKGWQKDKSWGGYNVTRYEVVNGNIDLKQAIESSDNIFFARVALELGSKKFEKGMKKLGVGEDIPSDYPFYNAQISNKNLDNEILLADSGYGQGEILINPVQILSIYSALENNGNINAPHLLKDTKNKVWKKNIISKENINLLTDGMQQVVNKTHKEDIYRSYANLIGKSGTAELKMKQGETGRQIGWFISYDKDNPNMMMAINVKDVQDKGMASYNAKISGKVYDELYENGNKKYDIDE

[5] = target: T2, MecA (Staphylococcus aureus, UniProt Q7DHH4); assay: Binding affinity to Staphylococcus aureus PBP2a assessed as equilibrium dissociation constant by SPR assay
T2 sequence (Q7DHH4 whole entry): T1 sequence (whole entry)

[6] = system: Staphylococcus aureus; assay: Antibacterial activity against methicillin-resistant Staphylococcus aureus 05 clinical isolate by broth dilution assay; type: functional
[7] = system: Staphylococcus aureus; assay: Antibacterial activity against methicillin-resistant Staphylococcus aureus 01 clinical isolate by broth dilution assay; type: functional
[8] = system: Staphylococcus aureus; assay: Antibacterial activity against methicillin-resistant Staphylococcus aureus 07 clinical isolate by broth dilution assay; type: functional
[9] = system: Staphylococcus aureus; assay: Bactericidal activity against methicillin-resistant Staphylococcus aureus 06 clinical isolate by broth dilution assay; type: functional
[10] = system: Staphylococcus aureus; assay: Antibacterial activity against methicillin-resistant Staphylococcus aureus 10 clinical isolate by broth dilution assay; type: functional
[11] = system: Staphylococcus aureus; assay: Bactericidal activity against methicillin-resistant Staphylococcus aureus 12 clinical isolate by broth dilution assay; type: functional
[12] = system: Staphylococcus aureus; assay: Antibacterial activity against methicillin-resistant Staphylococcus aureus 13 clinical isolate by broth dilution assay; type: functional
[13] = system: Staphylococcus aureus; assay: Antibacterial activity against methicillin-resistant Staphylococcus aureus 06 clinical isolate by broth dilution assay; type: functional
[14] = system: Staphylococcus aureus; assay: Antibacterial activity against methicillin-resistant Staphylococcus aureus 09 clinical isolate by broth dilution assay; type: functional
[15] = system: Staphylococcus aureus; assay: Antibacterial activity against methicillin-resistant Staphylococcus aureus 03 clinical isolate by broth dilution assay; type: functional
[16] = system: Staphylococcus aureus; assay: Bactericidal activity against methicillin-resistant Staphylococcus aureus 04 clinical isolate by broth dilution assay; type: functional
[17] = system: Staphylococcus aureus; assay: Bactericidal activity against methicillin-resistant Staphylococcus aureus 09 clinical isolate by broth dilution assay; type: functional
[18] = system: Staphylococcus aureus; assay: Bactericidal activity against methicillin-resistant Staphylococcus aureus 01 clinical isolate by broth dilution assay; type: functional
[19] = system: Staphylococcus aureus; assay: Antibacterial activity against methicillin-resistant Staphylococcus aureus 11 clinical isolate by broth dilution assay; type: functional
[20] = system: Staphylococcus aureus; assay: Antibacterial activity against methicillin-resistant Staphylococcus aureus 12 clinical isolate by broth dilution assay; type: functional
[21] = system: Staphylococcus aureus; assay: Bactericidal activity against methicillin-resistant Staphylococcus aureus 08 clinical isolate by broth dilution assay; type: functional
[22] = system: Staphylococcus aureus; assay: Bactericidal activity against methicillin-resistant Staphylococcus aureus 13 clinical isolate by broth dilution assay; type: functional
[23] = system: Staphylococcus aureus; assay: Bactericidal activity against methicillin-resistant Staphylococcus aureus 03 clinical isolate by broth dilution assay; type: functional
[24] = system: Staphylococcus aureus; assay: Bactericidal activity against methicillin-resistant Staphylococcus aureus 02 clinical isolate by broth dilution assay; type: functional
[25] = system: Staphylococcus aureus; assay: Antibacterial activity against methicillin-resistant Staphylococcus aureus 08 clinical isolate by broth dilution assay; type: functional
[26] = system: Staphylococcus aureus; assay: Antibacterial activity against methicillin-resistant Staphylococcus aureus 04 clinical isolate by broth dilution assay; type: functional
[27] = system: Staphylococcus aureus; assay: Bactericidal activity against methicillin-resistant Staphylococcus aureus 11 clinical isolate by broth dilution assay; type: functional
[28] = system: Staphylococcus aureus; assay: Bactericidal activity against methicillin-resistant Staphylococcus aureus 10 clinical isolate by broth dilution assay; type: functional
[29] = system: Staphylococcus aureus; assay: Bactericidal activity against methicillin-resistant Staphylococcus aureus 05 clinical isolate by broth dilution assay; type: functional
[30] = system: Staphylococcus aureus; assay: Bactericidal activity against methicillin-resistant Staphylococcus aureus 07 clinical isolate by broth dilution assay; type: functional
[31] = system: Staphylococcus aureus; assay: Antibacterial activity against methicillin-resistant Staphylococcus aureus 02 clinical isolate by broth dilution assay; type: functional

CC(=O)Nc1ccc(NC(=O)COc2cc3c(c4oc(=O)c(C)c(C)c24)CCC(C)(C)O3)cc1
MIC [1]: 64 µg/mL (≈ 138 µM)
IC50 [2]: > 20 µM
MIC [3]: 32 µg/mL (≈ 68.9 µM)

COc1ccc(NC(=O)[C@H]2Oc3c(c(=O)oc4ccccc34)[C@@H]2c2ccc(CCCN3CCCC3=O)cc2)cc1
Ka [4]: 2.46 10^4/M/s
Kd [5]: 86.6 µM
MIC [1]: 64 µg/mL (≈ 119 µM)
IC50 [2]: > 20 µM
MIC [3]: 128 µg/mL (≈ 238 µM)

CC[C@H](C)[C@@H](CC(=O)CNC(=O)CCc1c(C)c2cc3oc(C)c(-c4ccccc4)c3c(C)c2oc1=O)C(=O)O
MIC [1]: 64 µg/mL (≈ 117 µM)
IC50 [2]: > 20 µM
MIC [3]: 32 µg/mL (≈ 58.6 µM)

COc1cc2c(c(OC)c1OC)-c1ccc(NCC(=O)NCCc3c[nH]c4ccccc34)c(=O)cc1[C@@H](NC(C)=O)CC2
Ka [4]: 3.48 10^5/M/s
Kd [5]: 0.168 µM
MIC [1]: 4 µg/mL (≈ 6.84 µM)
IC50 [2]: > 20 µM
MIC [3]: 2 µg/mL (≈ 3.42 µM)

COc1cccc(/C=C2\Oc3cc(OCC(=O)N[C@@H](Cc4c[nH]c5ccccc45)C(=O)O)ccc3C2=O)c1
MIC [1]: 8 µg/mL (≈ 15.6 µM)
IC50 [2]: > 20 µM
MIC [3]: 4 µg/mL (≈ 7.8 µM)

COc1ccc(-c2cc(=O)oc3c(C)c(OCC(=O)N[C@@H](Cc4c[nH]c5ccc(O)cc45)C(=O)O)ccc23)cc1
Ka [4]: 5.65 10^5/M/s
Kd [5]: 0.264 µM
MIC [1]: 4 µg/mL (≈ 7.37 µM)
IC50 [2]: 11.6 µM
MIC [3]: 4 µg/mL (≈ 7.37 µM)

COc1ccc(CCNC(=O)COc2ccc3c(c2)OC2(CCN(C(C)=O)CC2)CC3=O)cc1OC
MIC [1]: 64 µg/mL (≈ 129 µM)
IC50 [2]: 7.8 µM
MIC [3]: 16 µg/mL (≈ 32.2 µM)

COc1ccc(CNC(=O)[C@@H](C)Oc2ccc3c(c2)c2cncc4c5cc(OC)c(OC)cc5c(=O)n3c42)c(OC)c1
MIC [1]: 128 µg/mL (≈ 226 µM)
IC50 [2]: 6.4 µM
MIC [3]: 64 µg/mL (≈ 113 µM)

O=C(C[C@@H]1NC(=O)c2ccccc2NC1=O)NCCc1c[nH]c2ccc(OCc3ccccc3)cc12
MIC [1]: 32 µg/mL (≈ 66.3 µM)
IC50 [2]: > 20 µM
MIC [3]: 64 µg/mL (≈ 133 µM)

Cc1ccc(NC(=O)[C@H](Cc2c[nH]c3ccccc23)NC(=O)C2CCN(C(=O)CNC(=O)OC(C)(C)C)CC2)cc1
MIC [6]: 1 µg/mL (≈ 1.78 µM)
MIC [7]: 2 µg/mL (≈ 3.56 µM)
MIC [8]: 4 µg/mL (≈ 7.12 µM)
MBC [9]: 64 µg/mL (≈ 114 µM)
MIC [10]: 4 µg/mL (≈ 7.12 µM)
Ka [4]: 3.28 10^5/M/s
MBC [11]: 256 µg/mL (≈ 456 µM)
MIC [12]: 16 µg/mL (≈ 28.5 µM)
MIC [13]: 4 µg/mL (≈ 7.12 µM)
MIC [14]: 16 µg/mL (≈ 28.5 µM)
MIC [15]: 8 µg/mL (≈ 14.2 µM)
MBC [16]: 64 µg/mL (≈ 114 µM)
MBC [17]: 64 µg/mL (≈ 114 µM)
MBC [18]: 32 µg/mL (≈ 57 µM)
Kd [5]: 0.129 µM
MIC [1]: 2 µg/mL (≈ 3.56 µM)
IC50 [2]: > 20 µM
MIC [19]: 2 µg/mL (≈ 3.56 µM)
MIC [20]: 8 µg/mL (≈ 14.2 µM)
MBC [21]: 32 µg/mL (≈ 57 µM)
MBC [22]: 128 µg/mL (≈ 228 µM)
MBC [23]: 128 µg/mL (≈ 228 µM)
MBC [24]: 64 µg/mL (≈ 114 µM)
MIC [25]: 0.5 µg/mL (≈ 0.89 µM)
MIC [3]: 2 µg/mL (≈ 3.56 µM)
MIC [26]: 4 µg/mL (≈ 7.12 µM)
MBC [27]: 128 µg/mL (≈ 228 µM)
MBC [28]: 64 µg/mL (≈ 114 µM)
MBC [29]: 8 µg/mL (≈ 14.2 µM)
MBC [30]: 64 µg/mL (≈ 114 µM)
MIC [31]: 4 µg/mL (≈ 7.12 µM)

CN[C@H](CC(C)C)C(=O)N[C@H]1C(=O)N[C@@H](CC(N)=O)C(=O)N[C@H]2C(=O)N[C@H]3C(=O)N[C@H](C(=O)N[C@H](C(=O)O)c4cc(O)cc(O)c4-c4cc3ccc4O)[C@H](O)c3ccc(c(Cl)c3)Oc3cc2cc(c3O[C@@H]2O[C@H](CO)[C@@H](O)[C@H](O)[C@H]2O[C@H]2C[C@](C)(N)[C@H](O)[C@H](C)O2)Oc2ccc(cc2Cl)[C@H]1O [VANCOMYCIN]
MBC [9]: 8 µg/mL (≈ 5.52 µM)
MBC [11]: 128 µg/mL (≈ 88.3 µM)
MIC [15]: 8 µg/mL (≈ 5.52 µM)
MBC [16]: 128 µg/mL (≈ 88.3 µM)
MBC [17]: 32 µg/mL (≈ 22.1 µM)
MBC [18]: 32 µg/mL (≈ 22.1 µM)
IC50 [2]: > 20 µM
MIC [19]: 16 µg/mL (≈ 11 µM)
MIC [20]: 8 µg/mL (≈ 5.52 µM)
MBC [21]: 64 µg/mL (≈ 44.2 µM)
MBC [22]: 64 µg/mL (≈ 44.2 µM)
MBC [23]: 128 µg/mL (≈ 88.3 µM)
MBC [24]: 64 µg/mL (≈ 44.2 µM)
MIC [25]: 8 µg/mL (≈ 5.52 µM)
MBC [27]: 64 µg/mL (≈ 44.2 µM)
MBC [28]: 128 µg/mL (≈ 88.3 µM)
MBC [29]: 64 µg/mL (≈ 44.2 µM)
MBC [30]: 32 µg/mL (≈ 22.1 µM)

C[C@]12CCC(=O)C=C1CC[C@@H]1[C@H]2CC[C@@]2(C)[C@H]1CC[C@]2(O)C(=O)COC(=O)CCC(=O)N[C@H]1CCCCNC1=O
MIC [1]: 4 µg/mL (≈ 7.19 µM)
IC50 [2]: 16.9 µM
MIC [3]: 4 µg/mL (≈ 7.19 µM)
